Results: patent publication US20240156790A1, “COMPOUNDS, COMPOSITIONS, AND METHODS FOR MODULATING FERROPTOSIS AND TREATING EXCITOTOXIC DISORDERS” (THE TRUSTEES OF COLUMBIA UNIVERSITY IN THE CITY OF NEW YORK, priority 2018, published 2024)
“Also recorded” adds a separate entry of the source.

What was measured:
[1] = Microsomal Stability Assay (Examples 6 and 8); type: in vitro ADME, mouse; conditions: for microsomal stability / half-life, in words: assessed over two hours; for half-life at 20 µM: CD-1, mouse, liver microsomes, pH 7.4, text, read-out: half-life in mouse liver microsomes
Procedure: (§1) To a 96-well polypropylene plate was added phosphate buffer (182.2 μL, pH 7.4, 100 mM) followed by addition of NADPH-regenerating system solution A (10 μL), and NADPH regenerating system solution B (2 μL) (Corning Gentest 3P NADPH regenerating system solution A (#451220) and B (#451200)). A stock solution of analog (0.8 μL. 5 mM) or fer-1 (positive control) was added and the mixture was warmed to 37° C. for 5 min. Mouse microsomes (CD-1, 20 mg/mL, Life Technologies) (5 μL, thawed in 37° C. water bath before use) were added. The resulting reaction mixture was kept at 37° C. with gentle agitation for the duration of the experiment. At selected time points (0, 1, 5, 10, 20, 30, 60 and 120 min) aliquots (15 μL) were withdrawn from the plate and quenched upon addition to cold methanol (60 μL), containing an internal standard (5 μM) in a separate 96-well polypropylene plate. At the completion of the final time-point, the samples were centrifuged at 4,000 rpm for 5 min at 4° C. The supernatant (40 μL) was withdrawn and transferred to a sample vial with insert. The samples were analyzed by LC-MS. LC-MS analysis was performed on a platform comprising a Thermo Scientific Dionex Ultimate 3000 and a Bruker amaZon SL equipped with an electrospray ionization source controlled by Bruker Hystar 3.2. Chromatographic separation was performed by injecting 5 μL of the sample onto an Agilent Eclipse Plus C18 column (2.1×50 mm, 3.5 μm) maintained at 20° C. The flow rate was maintained at 400 μL/min. The initial flow conditions were 80% solvent A (water containing 0.1% acetic acid) and 20% solvent B (methanol containing 0.1% acetic acid). Solvent B was raised to 80% over 0.50 min by 1.50 min. Solvent B was raised to 100% by 5.00 min and held there for 3.25 min. […] All analogs were detected in positive mode as [M+H]*. The percent of compound remaining at each time-point was calculated as the ratio of the integrated compound peak over the internal standard peak and standardized to the t=0 time-point. Values were plotted in GraphPad Prism 9 and fit with a one phase decay.
as §1, with “and NADPH-regenerating” for “and NADPH regenerating”, “rpm (1872 g)” for “rpm”, “[M+H]*. […]” for “[M+H]*. The percent of compound remaining at each time-point was calculated as the ratio of the integrated compound peak over the internal standard peak and standardized to the t=0 time-point. Values were plotted in GraphPad Prism 9 and fit with a one phase decay.”

HT-1080 cells = experiment: Cell viability assays in HT-1080 cells, ferroptosis induced by IKE or RSL3 (Example 8); type: cell-based; conditions: for IC50: Homo sapiens, HT-1080, 48 h
Procedure: Cell culture assays were incubated at 37° C. with 5% CO2. HT-1080 cells were grown in DMEM (Corning) supplemented with 10% FBS (Life Technologies), 1% Penicillin-Streptomycin 10,000 U/mL (Gibco), and 1% MEM Non-Essential Amino Acids Solution 100× (Gibco). For cell viability assays, cells were trypsinized, counted, and seeded into 384-well white polypropylene plates at 1,000 cells/well, unless otherwise specified. After allowing cells to adhere overnight, compounds in DMSO stocks were arrayed in a 16-point dilution series prepared in a mother plate, and treated from a daughter plate, [DMSO]=0.28%. After 24 or 48 h, 50% CellTiter-Glo (Promega) 50% cell culture medium was added to each well and incubated at room temperature with shaking for 15 min. Luminescence was measured using a Victor X5 plate reader (PerkinElmer). All cell viability data were normalized to the DMSO vehicle condition. […] All 384w measurements were performed in triplicate
We first evaluated the efficacy of four pyridine analogs, TH-2-9-1, TH-2-31, TH-2-37-1, and TH-2-37-2, in suppressing ferroptosis induced by IKE and RSL3 in HT-1080 cells. […] We sought to determine whether incorporation of pyridine changed stability in mouse liver microsomes.

[2] = TH-2-31, TH-4-55-2, TH-4-67 PK Study (IP, IV, PO; plasma and brain); type: in vivo, C57BL/6 mice; conditions: mouse, in vivo
Procedure: C57BL/6 mice (8-weeks of age and ˜25 g weight) were weighed before injection and divided into groups of two male and female mice per cage. Compound was dissolved in 5% DMSO/95% of 1:1 [(65% v/v of 25% w/v 2-hydroxypropyl-3-cyclodextrin (Cayman Chemical) dissolved in 20% EtOH, 30% v/v Poly(ethylene glycol)-400 (Sigma Aldrich 202398), 5% v/v Tween 80 (Fluka 59924)):MilliQ water] to create a 2 mg/mL solution. The same formulation without compound was used as a vehicle control. The solution was sterilized using a […] Steriflip filter unit (Thomas Scientific 1189Q46). Mice were dosed IP, IV, and PO routes of administration and euthanized by CO2 asphyxiation for 3 min at 0, 1, 2, 4, 8, and 24 h after administration. To ensure that the vehicle was well-tolerated 4 mice were treated with vehicle and euthanized 4 h after administration. ˜0.5 mL of blood was collected via cardiac puncture and immediately put in K3 EDTA microtubes ([…] 41.1504.105) and kept on ice. Organs were harvested, placed in Eppendorf tubes, and frozen on dry ice. Blood samples were centrifuged for 10 min at 2,100×g at 4° C., then plasma was transferred to a clean tube and frozen on dry ice. Organ samples were weighed and placed in hard tissue homogenizing tubes (Omni International 19-628) and a volume of DEPC-treated nuclease-free water (IBI Scientific IB42200) was added to make a 500 mg/mL solution and homogenized using the Omni Bead Ruptor 4 at speed 5 for 30 seconds. Compound was extracted from plasma or organ homogenate by adding 900 μL acetonitrile to 100 μL plasma or organ homogenate. Samples were mixed by vortexing and allowed to extract overnight at 4° C. prior to mixing for at least 5 min by rotating at room temperature, vortexing, and sonicating for at least 30 second prior to centrifugation for 10 min at 4,000×g and 4° C. The supernatant was then transferred to a glass vial and analyzed by UPLC-MS described below. The concentration of each analog was determined against a standard curve with a nonlinear fit and the data plot in GraphPad Prism 9 and fit with a one phase decay.
Samples from animal studies were analyzed via UPLC-MS using a Waters Xevo G2-Xs QTof Mass spectrometer equipped with an Acquity UPLC. Chromatographic separation was carried out at 50° C. on a Acquity UPLC BEH C18 column (1.7 μm, 2.1 mm×50 mm, pore size 130 Å) over a 4.5 min gradient elution. The flowrate was held constant at 0.8 mL/min. Mobile phase A consisted of water and mobile phase B consisted of ACN both containing 0.1% formic acid. After injection, the gradient was held at 50% A for 0.25 min. For the next minute, the gradient was ramped in a linear fashion to 100% B and held at this composition for 0.5 min. The eluent composition returned to the initial condition in 0.01 min and the column was re-equilibrated for 2.74 min before the next injection. Injection volumes were 0.5 μL (TH-2-31 40 mg/kg) and 1 μL for all other conditions. The Xevo G2-Xs was operated in positive electrospray ionization (ESI) mode. A capillary voltage and sampling cone voltage of 0.5 kV and 30 V were used. The source and desolvation temperatures were kept at 120° C. and […], respectively. Nitrogen was used as the desolvation gas with a flowrate of 750 L/hr. The protonated molecular ion of leucine encephalin ([M+H]^+, m/z 556.2771 was used as a lock mass for mass accuracy and reproducibility. Leucine enkephalin was introduced to the lock mass at a concentration of 2 ng/mL (50% ACN containing 0.1% formic acid), and a flow rate of […]. To avoid signal saturation, the signal transmission was attenuated to <10%, based off the signal intensity of the highest standard concentration for the duration of the run. The data was collected over the mass range m/z 50 to 1200 Da with an acquisition time of 0.1 seconds per scan. The retention time for each analog is detailed below. […]

[3] = test system: N27 rat dopaminergic cells; experiment: Suppression of ferroptosis induced by RSL3 in N27 cells (CellTiter-Glo viability); type: cell-based; conditions: Rattus norvegicus, N27, 24 h, Table 3; ^d 24 hr treatment, 1,000 cells/well seeded; read-out: IC50
[4] = ^b 2 μM IKE, 48 hours, 1,000 cells/well
[5] = ^c 0.2 μM RSL3, 48 hours, 1,000 cells/well

Structure (SMILES)	potency relative to fer-1 at suppressing ferroptosis, in words (HT-1080 cells)	half-life at 20 µM [1] [h]	other results
CC(C)(C)OC(=O)c1ccc(NC23CC4CC(CC(C4)C2)C3)c(NC2CCCCC2)c1 [DL032, tert-butyl 4-(((3s,5s,7s)-adamantan-1-yl)amino)-3-(cyclohexylamino)benzoate]	more potent than fer-1		microsomal stability / half-life, in words [1]: half-lives greater than two hours
Cc1noc(-c2ccc(NC34CC5CC(CC(C5)C3)C4)c(NC3CCCCC3)c2)n1 [PHB4083, N1-((3s,5s,7s)-adamantan-1-yl)-N2-cyclohexyl-4-(3-methyl-1,2,4-oxadiazol-5-yl)benzene-1,2-diamine]	more potent than fer-1		microsomal stability / half-life, in words [1]: half-lives greater than two hours
CC(C)(C)OC(=O)c1cc(N)c(NC23CC4CC(CC(C4)C2)C3)cc1F [AZII78, tert-butyl 4-(((3s,5s,7s)-adamantan-1-yl)amino)-5-amino-2-fluorobenzoate]		< 1	
Cc1noc(-c2ccc(NC34CC5CC(CC(C5)C3)C4)c(N)c2)n1 [PHB4066, N1-((3s,5s,7s)-adamantan-1-yl)-4-(3-methyl-1,2,4-oxadiazol-5-yl)benzene-1,2-diamine]		< 1	
Cc1cc(NC23CC4CC(CC(C4)C2)C3)c(NC2CCCCC2)cc1C(=O)OC(C)(C)C [AZIII9, tert-butyl 4-(((3s,5s,7s)-adamantan-1-yl)amino)-5-(cyclohexylamino)-2-methylbenzoate]	less potent than fer-1		microsomal stability / half-life, in words [1]: half-lives greater than two hours; also recorded: the most stable compound tested
Cc1noc(-c2cc(NC(C)C)cnc2NC2CCCCC2)n1 [TH-2-37-2, N^2-cyclohexyl-N^5-isopropyl-3-(3-methyl-1,2,4-oxadiazol-5-yl)pyridine-2,5-diamine]	potencies greater than fer-1		IC50 (HT-1080 cells; [4]): 5.4 nM; IC50 (HT-1080 cells; [5]): 3.8 nM
Cc1noc(-c2cc(NC3CCCCC3)cnc2NC2CCCCC2)n1 [TH-2-37-1, N^2,N^5-dicyclohexyl-3-(3-methyl-1,2,4-oxadiazol-5-yl)pyridine-2,5-diamine]	potencies greater than fer-1		IC50 (HT-1080 cells; [4]): 7.5 nM; IC50 (HT-1080 cells; [5]): 4.3 nM
Cc1noc(-c2ccc(NC3CCCCC3)c(N)c2)n1 [PHB4078, N1-cyclohexyl-4-(3-methyl-1,2,4-oxadiazol-5-yl)benzene-1,2-diamine]		< 1	
CC(C)(C)OC(=O)c1ccc(NC2CCCCC2)c(Nc2ccccc2)c1 [PHB4081, tert-butyl 4-(cyclohexylamino)-3-(phenylamino)benzoate]		< 1	
Cc1noc(-c2cnc(NC34CC5CC(CC(C5)C3)C4)c(NC3CCCCC3)c2)n1 [TH-4-100-2, N^2-((3s,5s,7s)-adamantan-1-yl)-N^3-cyclohexyl-5-(3-methyl-1,2,4-oxadiazol-5-yl) pyridine-2,3-diamine]			tolerability / adverse observations after dosing [2]: less impaired immediately following injection and recovered more quickly; also recorded: less impaired immediately following injection and recovered quicker; IC50 [3]: 18.9 nM
Cc1cc(NC23CC4CC(CC(C4)C2)C3)c(N)cc1C(=O)OC(C)(C)C [AZIII4, tert-butyl 4-(((3s,5s,7s)-adamantan-1-yl)amino)-5-amino-2-methylbenzoate]		< 1	
